Source: publication PMC4741878, “Specific inhibition by synthetic analogs of pyruvate reveals that the pyruvate dehydrogenase reaction is essential for metabolism and viability of glioblastoma cells” (Oncotarget, 2015)

What was measured:
[1] = biological target: T1, pyruvate dehydrogenase (PDH; E1 component of the pyruvate dehydrogenase complex, PDHC) (Rattus norvegicus, UniProt P26284+P49432); experiment: overall PDHC reaction by NADH production: Ki in permeabilized mitochondria; IC50 […] with isolated rat heart PDHC ([…] min preincubation); assay type: biochemical
T1 construct: gene Pdha1; native PDHC partially purified from rat heart or liver; PDHC in alamethicin-permeabilized rat skeletal muscle mitochondria; with PDHB (E1 beta subunit), within the PDHC with DLAT, DLD and PDHX

[2] = biological target: T1, pyruvate dehydrogenase (PDH; E1 component of the pyruvate dehydrogenase complex, PDHC); experiment: overall PDHC reaction by NADH production: Ki in permeabilized mitochondria; IC50 […] with isolated rat heart PDHC at […] pyruvate; assay type: biochemical

T1 sequence (P26284 30-390): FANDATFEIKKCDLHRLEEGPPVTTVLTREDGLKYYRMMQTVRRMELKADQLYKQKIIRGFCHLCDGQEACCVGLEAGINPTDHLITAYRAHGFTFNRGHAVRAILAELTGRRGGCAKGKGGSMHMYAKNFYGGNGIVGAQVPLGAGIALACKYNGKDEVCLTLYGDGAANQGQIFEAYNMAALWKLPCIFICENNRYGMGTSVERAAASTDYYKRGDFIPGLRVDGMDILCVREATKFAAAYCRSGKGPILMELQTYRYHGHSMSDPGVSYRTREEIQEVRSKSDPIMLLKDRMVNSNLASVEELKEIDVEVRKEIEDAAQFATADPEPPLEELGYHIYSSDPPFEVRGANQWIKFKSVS
T1 sequence (P49432 31-359): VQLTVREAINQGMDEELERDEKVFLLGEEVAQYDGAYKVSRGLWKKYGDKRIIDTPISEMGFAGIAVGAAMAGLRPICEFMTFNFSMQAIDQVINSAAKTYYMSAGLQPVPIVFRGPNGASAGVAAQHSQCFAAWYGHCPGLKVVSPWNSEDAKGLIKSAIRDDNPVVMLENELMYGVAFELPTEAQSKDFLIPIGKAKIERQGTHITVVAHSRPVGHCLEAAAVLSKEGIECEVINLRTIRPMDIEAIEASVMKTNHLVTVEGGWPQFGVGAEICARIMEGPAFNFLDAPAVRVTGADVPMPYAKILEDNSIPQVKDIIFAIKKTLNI
T1 sequence (P08461 78-632 partner): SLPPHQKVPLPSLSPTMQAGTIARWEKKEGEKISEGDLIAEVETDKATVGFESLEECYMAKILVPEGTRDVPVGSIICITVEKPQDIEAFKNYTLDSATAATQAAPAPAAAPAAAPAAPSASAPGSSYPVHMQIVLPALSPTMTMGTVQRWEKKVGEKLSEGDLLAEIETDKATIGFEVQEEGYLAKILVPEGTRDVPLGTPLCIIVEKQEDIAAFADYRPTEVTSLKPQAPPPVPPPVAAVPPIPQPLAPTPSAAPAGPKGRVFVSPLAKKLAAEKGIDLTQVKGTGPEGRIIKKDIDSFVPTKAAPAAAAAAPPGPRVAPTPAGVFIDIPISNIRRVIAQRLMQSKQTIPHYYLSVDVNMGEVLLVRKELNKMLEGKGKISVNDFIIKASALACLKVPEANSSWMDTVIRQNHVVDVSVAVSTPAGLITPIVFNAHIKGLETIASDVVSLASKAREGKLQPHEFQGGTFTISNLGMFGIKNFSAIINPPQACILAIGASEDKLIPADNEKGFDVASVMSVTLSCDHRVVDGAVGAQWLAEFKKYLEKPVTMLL
T1 sequence (Q6P6R2 36-509 partner): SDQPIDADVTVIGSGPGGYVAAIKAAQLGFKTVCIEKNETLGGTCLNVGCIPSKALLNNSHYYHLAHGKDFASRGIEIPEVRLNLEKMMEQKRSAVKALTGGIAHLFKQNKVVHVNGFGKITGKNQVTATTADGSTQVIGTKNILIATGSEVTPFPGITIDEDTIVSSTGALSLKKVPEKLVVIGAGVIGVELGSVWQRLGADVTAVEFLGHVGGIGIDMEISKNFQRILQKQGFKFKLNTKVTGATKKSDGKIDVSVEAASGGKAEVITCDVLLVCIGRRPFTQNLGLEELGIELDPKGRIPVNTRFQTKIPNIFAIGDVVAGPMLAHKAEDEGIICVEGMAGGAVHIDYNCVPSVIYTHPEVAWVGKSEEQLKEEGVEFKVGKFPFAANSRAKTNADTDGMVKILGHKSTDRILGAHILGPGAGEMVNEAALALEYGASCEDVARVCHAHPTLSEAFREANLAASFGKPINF

| SMILES | Ki [1] | Ki [2] |
| --- | --- | --- |
| CC(=O)[PH](=O)O [AcPH, acetyl phosphinate] | 0.1 µM |  |
| COP(=O)(O)C(C)=O [AcPMe, methyl ester of acetyl phosphonate] |  | 40 µM |
